# Measured values as given in PubChem BioAssay (NCI).
#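 1) Cells in 96-well plates. 2) Compound, 48 h, 5 concentrations. 3) Linear interpolation between surrounding doses. 4) Unreached endpoint = highest concentration. At the GI50, growth is halved. The concentration for full growth arrest is given as TGI.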
# Experiments:
# Experiment in all cases: DTP human tumour cell line panel, 48 h
# [1] = test system: ACHN renal
# [2] = test system: CAKI-1 renal
# [3] = test system: HCT-15 colon
# [4] = test system: MOLT-4 leukemia
# [5] = test system: OVCAR-5 ovarian
# [6] = test system: RPMI-8226 leukemia
# [7] = test system: SF-295 CNS
# [8] = test system: SK-MEL-2 melanoma
# [9] = test system: SR leukemia
# [10] = test system: UO-31 renal
SMILES,GI50 [1] [µM],TGI [1] [µM],GI50 [2] [µM],TGI [2] [µM],GI50 [3] [µM],TGI [3] [µM],GI50 [4] [µM],TGI [4] [µM],GI50 [5] [µM],TGI [5] [µM],GI50 [6] [µM],TGI [6] [µM],GI50 [7] [µM],TGI [7] [µM],GI50 [8] [µM],TGI [8] [µM],GI50 [9] [µM],TGI [9] [µM],GI50 [10] [µM],TGI [10] [µM]
CCCCCCCCCCCC1=NC(C)(C)CN1C(C)(C)CO,3.01,10,1.73,4.37,2.15,4.74,2.79,8.66,3.61,15,2.49,5.83,2.04,4.29,2.12,3.88,3.07,12.5,2.03,8.42
COc1cc(/C=C/c2ccc(C)cc2)cc(OC)c1OC,,35.5,,> 55.2,,20.1,,25.6,,21.9,,43.7,,6.53,,> 31.6,,16.6,,23.6
Fc1ccc(-c2ncn(C3CCNCC3)c2-c2ccnc(Oc3ccc4c(c3)OCO4)n2)cc1,8.82,> 25,> 20.9,> 25,21.1,> 25,> 25,> 25,> 25,> 25,> 25,> 25,> 20.1,> 25,> 25,> 25,13.6,> 25,7.81,> 25
O=S(=O)(O)O,,1550,,1870,,1820,,1680,,1700,,2500,,2060,,1450,,> 1810,,1770
Cc1ccc2nc3ccccc3c(NCc3ccc(Cl)cc3)c2c1,5.44,11.9,4.89,11,2.52,8.73,1.59,5.5,4.67,11.1,1.44,4.1,5.65,11.7,8.57,17.3,1.48,3.84,1.53,8.25
CCCn1c2c(c3c(O)cccc31)C(=O)c1ccccc1-2,14.9,45.1,20.2,61.9,34.1,> 100,0.0475,7.31,3.72,> 100,7.34,> 100,23,67.8,87,> 100,0.0354,23.8,22.8,> 100
CN1C(=O)c2ccc3ccccc3c2C1=O,,> 100,,> 100,,> 100,,> 100,,> 100,,> 100,,> 100,,> 100,,> 100,,> 100
CCOC(=O)N1C/C(=C\c2ccccc2)C(=O)/C(=C/c2ccccc2)C1,,10.6,,4.51,,5.74,,6,,18.2,,1.77,,10.1,,28.2,,4.05,,12.4
CN(C)c1ccc(Nc2c3ccccc3nc3ccccc23)cc1,0.532,2.27,0.486,2.33,0.959,3.49,0.357,5.18,1.54,6.72,0.984,3.9,0.579,2.75,0.821,2.83,0.297,1.35,0.359,1.87
COc1cc2c3c(n(CCCN)c(=O)c2cc1OC)-c1ccc([N+](=O)[O-])cc1C3=O,5.2,16.7,4.7,19.4,5.83,19,0.434,16.2,15.9,30.7,1.75,4.91,0.912,17.9,0.0173,5.19,0.0731,10.4,0.222,6.22
C=CCn1c(=S)sc2c(C(=O)OCC)c3c(C)cc(C)cn3c2c1=O,,> 100,,> 100,,> 100,,> 100,,> 100,,> 100,,> 100,,> 100,,> 100,,> 100
COc1cc(-c2nc3ccccc3s2)ccc1OCCCCOc1cc2c(cc1OC)C(=O)N1CCC[C@H]1C=N2,1.31,5.8,0.949,11.6,1.7,4.46,0.952,7.99,1.13,4.93,0.328,1.44,2.02,10.3,1.6,4.23,0.212,0.785,1.17,4.06
C[C@H]1[C@H](C)N1CC(O)Cn1ccnc1[N+](=O)[O-] (stereo not given in full),,> 100,,> 100,,> 100,,> 100,,> 100,,> 100,,> 100,,> 100,,> 100,,> 100
C/C(=C\c1ccn(-c2ccccc2N)n1)[C@@H]1C[C@@H]2O[C@]2(C)CCC[C@H](C)[C@H](O)[C@@H](C)C(=O)C(C)(C)[C@@H](O)CC(=O)O1,0.283,> 50,0.242,> 50,0.0393,> 50,0.0341,> 42.2,0.102,> 40.9,0.0188,> 24.1,0.0797,> 50,0.0819,> 50,0.0267,> 50,0.302,> 50
O=[N+]([O-])c1cc[n+]([O-])c2ccccc12,0.142,0.512,0.307,0.937,0.279,1.42,1.9,6.35,2.42,6.1,0.0439,0.358,0.2,0.627,0.169,0.377,0.0245,> 100,0.191,0.604
